This note sets out measurements from publication PMC9848351, “Discovery of new pyridine-quinoline hybrids as competitive and non-competitive PIM-1 kinase inhibitors with apoptosis induction and caspase 3/7 activation capabilities” (Journal of Enzyme Inhibition and Medicinal Chemistry, 2023).

The subject of data set [1] is liver cancer cell line (HepG-2). As to the kind of experiment: MTT anticancer activity, HepG-2. Format: cell-based, human. Particulars: Homo sapiens, HepG2; HepG-2, 72 h, MTT; mean ± SEM. The procedure: (§1) Anticancer effect of the above-mentioned compounds was evaluated using four human cancer cell lines. Colon cancer cells (Caco-2), myeloid leukaemia cell line (NFS-60), liver cancer cell line (HepG-2) and prostate cancer cell line (PC-3) using MTT method was used for assaying cell viability[26] (Supplementary Page S55).
(§2) All final compounds were evaluated against four human cancer cell lines namely; liver cancer (HepG2) (ATCC® HB-8065™), colon cancer (Caco-2) (ATCC® HTB-37™), leukaemia cancer (NFS-60) (ATCC® CRL-1838™), and prostate cancer (PC-3) (ATCC® CRL-1435™) using doxorubicin (Dox) as the reference drug being widely used in tumour management utilising microculture MTT assay, declared by Mosmann[26] (Table 1 in Supplementary Material, Figures 5–8). […]
(§3) MTT method was used for assaying cell viability 25. Twenty microliters of 5 mg/ml MTT (Sigma, USA) was added to each well and the plate was incubated at 37 °C for 3 h. Then MTT solution was removed, 100 µl DMSO was used and the absorbance of each well was measured with a microplate reader ( BMG LabTech, Germany) at 570 nm. The effective concentration (IC 50) and safe dose (EC100) values of the tested compounds that cause 50% and 100% cell viability were estimated by the Graphpad Instat software.
(§4) Determination of the anticancer activity
(§5) Anticancer effect of the above-mentioned compounds was evaluated using four human cancer cell lines. Colon cancer cells (Caco-2) were maintained in DMEM (Lonza, USA) containing 10% FBS while myeloid leukemia cell line (NFS-60), liver cancer cell line (HepG-2) and prostate cancer cell line (PC-3) were cultured in RPMI-1640 (Lonza, USA) supplemented with 10% FBS. All cancer cells (5x10^3 cells/well) were seeded in sterile 96-well plates. After 24h, serial concentrations of the tested compounds and Dox were incubated with four cancer cell lines for 72 h at 37 °C in 5% CO2 incubator. MTT method was done as described above. The Graphpad Instat software was used for calculating the half maximal inhibitory concentration (IC50) values. Furthermore, phase contrast inverted microscope with a digital camera (Olympus, Japan) was used for investigating […]
(§6) safest anticancer compounds. […]

Data set [2] has as its system prostate cancer cell line (PC-3). As to the kind of experiment: MTT anticancer activity, PC-3. The format is cell-based, human. Particulars: Homo sapiens, 72 h, PC-3, 72 h, mean ± SEM. As for the experimental part: as §1, §2, §3, §4, §5, §6
Data set [3] concerns myeloid leukaemia cell line (NFS-60). As to the kind of experiment: MTT anticancer activity, NFS-60. Format: cell-based. Particulars: NFS-60, 72 h, MTT; mean ± SEM. As for the experimental part: as §1, §2, §3, §4, §5, §6
The test system of data set [4] is Colon cancer cells (Caco-2). As to the kind of experiment: MTT anticancer activity, Caco-2. The format is cell-based, human. Particulars: for IC50: Homo sapiens, Caco-2, 72 h, MTT, mean ± SEM; for Caco-2 SI: selectivity index, Wi-38 versus Caco-2. As for the experimental part:
as §1
All final compounds were evaluated against four human cancer cell lines namely; liver cancer (HepG2) (ATCC® HB-8065™), colon cancer (Caco-2) (ATCC® HTB-37™), leukaemia cancer (NFS-60) (ATCC® CRL-1838™), and prostate cancer (PC-3) (ATCC® CRL-1435™) using doxorubicin (Dox) as the reference drug being widely used in tumour management utilising microculture MTT assay, declared by Mosmann[26] (Table 1 in Supplementary Material, Figures 5–8).
(§7) Cytotoxicity of the tested compounds was evaluated using normal human lung fibroblast Wi-38 cell line compared to currently used anticancer drug (doxorubicin).
as §3, with “Firstly, Wi-38 cell line was subcultured in DMEM medium-contained 10% fetal bovine serum (FBS), then, seeded as 5x10^3 cells per well in 96-well cell culture plate and incubated at 37 °C in 5% CO 2 incubator. Serial concentrations of these compounds and doxorubicin (Dox) were incubat ed with Wi-38 cells for 72 h after 24 h for cell attachment. MTT method” for “MTT method”
as §4, §5, §6

Data set [5] concerns normal human lung fibroblast Wi-38 cell line. As to the kind of experiment: MTT cytotoxicity on normal cells. Particulars: Wi-38, 72 h, MTT, mean ± SEM; for EC50: Homo sapiens, 50% cell viability; for Wi-38 EC100: safe dose, 100% cell viability. Format: cell-based. The procedure:
Cytotoxicity of the tested compounds was evaluated using normal human lung fibroblast Wi-38 cell line compared to currently used anticancer drug (doxorubicin) using MTT method was used for assaying cell viability[26] (Supplementary Page S55).
Cytotoxicity test is one of the biological evaluations and screening tests that use human normal and cancer cells in-vitro to observe the effect of the studied compounds on their growth using MTT-based cytotoxicity. Microculture MTT method[26] was used to determine cytotoxic activity of the newly synthesised compounds against normal human lung fibroblast (Wi-38) using doxorubicin (Dox) as standard anticancer drug. The highest IC50 and EC100 values illustrate that the compounds were safe on the proliferation of normal human cells. […]. page 47:
as §7
as §3, with “Firstly, Wi-38 cell line was subcultured in DMEM medium-contained 10% fetal bovine serum (FBS), then, seeded as 5x10^3 cells per well in 96-well cell culture plate and incubated at 37 °C in 5% CO 2 incubator. Serial concentrations of these compounds and doxorubicin (Dox) were incubat ed with Wi-38 cells for 72 h after 24 h for cell attachment. MTT method” for “MTT method”, “Instat software. […]” for “Instat software.”

By IC50 is commonly meant the concentration that gives 50% inhibition. By melting point is commonly meant the temperature of the solid-liquid transition. For orientation: EC50 means the concentration needed to bring the measured effect to its halfway point.

Consider `N#Cc1c(-c2cc3ccccc3nc2N2CCOCC2)cc(-c2cccc(O)c2)nc1S` [6a, 6-(3-Hydroxyphenyl)-4-(2-morpholin-4-yl-quinolin-3-yl)-2-mercaptopyridine-3-carbonitrile], for which the melting point fell in the range of 240 to 242 °C. This compound also yielded an IC50 in data set [1] of 74 ± 2 nM. The compound also showed an IC50 in data set [2] of 127 ± 2 nM. For the same compound, in data set [3], it took 135 ± 2 nM to reach half-maximal inhibition (IC50). For the same compound, in data set [4], half-maximal inhibition (IC50) was put at 104 ± 4 nM and the “Caco-2 SI” value was found to be 1.740. In data set [5], the EC50 stood at 181 ± 5 nM and the “Wi-38 EC100” value stood at 0.0785 ± 0.003 µM.
The compound `N#Cc1c(-c2cc3cc(Cl)ccc3nc2N2CCOCC2)cc(-c2cccc(O)c2)nc1S` [6b, 4-(6-Chloro-2-morpholin-4-yl-quinolin-3-yl)-6-(3-hydroxyphenyl)-2-mercaptopyridine-3-carbonitrile] returned a melting point of 260 to 261 °C. In data set [1], 46.6 ± 1 nM corresponded to half-maximal inhibition (IC50). The compound further gave an IC50 in data set [2] of 119 ± 14 nM. The compound also returned an IC50 in data set [3] of 204 ± 6 nM. In addition, in data set [4], the 50% inhibitory concentration (IC50) came to 55.2 ± 3 nM and the “Caco-2 SI” value came out at 2.500. In data set [5], the EC50 amounted to 138 ± 2 nM and the “Wi-38 EC100” value came to 0.0493 ± 0.001 µM.
For the compound `COc1ccc2nc(N3CCOCC3)c(-c3cc(-c4cccc(O)c4)nc(S)c3C#N)cc2c1` [6c, 6-(3-Hydroxyphenyl)-4-(6-methoxy-2-morpholin-4-yl-quinolin-3-yl)-2-mercaptopyridine-3-carbonitrile], the melting point is greater than 300 °C. Further, 84.8 ± 2 nM corresponded to half-maximal inhibition in data set [1] (IC50). Further, in data set [2], half-maximal inhibition (IC50) was put at 100.8 ± 0.1 nM. In data set [3], this compound gave an IC50 of 145 ± 15 nM. In data set [4], it took 99.9 ± 3 nM to reach half-maximal inhibition (IC50) and the “Caco-2 SI” value stood at 3.764. In data set [5], the EC50 came to 376 ± 1 nM and the “Wi-38 EC100” value amounted to 0.177 ± 0.011 µM.
With `N#Cc1c(-c2cc3ccccc3nc2N2CCCCC2)cc(-c2cccc(O)c2)nc1S` [6d, 6-(3-Hydroxyphenyl)-4-(2-(piperidin-1-yl)quinolin-3-yl)-2-mercaptopyridine-3-carbonitrile], the melting point was greater than 300 °C. This compound also gave an IC50 in data set [1] of 87.6 ± 2 nM. Besides, half-maximal inhibition in data set [2] (IC50) was put at 135 ± 11 nM. This compound gave an IC50 in data set [3] of 217 ± 22 nM. Further, in data set [4], 70.8 ± 3 nM corresponded to half-maximal inhibition (IC50) and the “Caco-2 SI” value worked out at 10.720. Further, in data set [5], the EC50 was 759 ± 25 nM and the “Wi-38 EC100” value turned out to be 0.212 ± 0.009 µM.
For the compound `CC(=O)Oc1cccc(-c2cc(-c3cc4ccccc4nc3N3CCOCC3)c(C#N)c(=O)[nH]2)c1` [7a, 3-(5-Cyano-4-(2-morpholin-4-yl-quinolin-3-yl)-6-oxo-1,6-dihydropyridin-2-yl)phenyl acetate], the melting point was greater than 300 °C. The compound further registered an IC50 in data set [1] of 49.5 ± 0.1 nM. Also, it took 140 ± 20 nM to reach half-maximal inhibition in data set [2] (IC50). Moreover, in data set [3], the IC50 was determined as 145 ± 2 nM. For the same compound, in data set [4], the IC50 stood at 79.9 ± 3 nM and the “Caco-2 SI” value turned out to be 2.178. In data set [5], the EC50 came out at 174 ± 5 nM and the “Wi-38 EC100” value worked out at 0.102 ± 0.01 µM.
Regarding `CC(=O)Oc1cccc(-c2cc(-c3cc4cc(Cl)ccc4nc3N3CCOCC3)c(C#N)c(=O)[nH]2)c1` [7b, 3-(4-(6-Chloro-2-morpholin-4-yl-quinolin-3-yl)-5-cyano-6-oxo-1,6-dihydropyridin-2-yl)phenyl acetate], the melting point lay in the range of 189 to 190 °C. This compound registered an IC50 in data set [1] of 101.6 ± 1 nM. This compound also showed an IC50 in data set [2] of 135 ± 2 nM. This compound also returned an IC50 in data set [3] of 107 ± 1 nM. Further, in data set [4], 119 ± 16 nM corresponded to half-maximal inhibition (IC50) and the “Caco-2 SI” value stood at 1.176. In addition, in data set [5], the midpoint of the response, the EC50, lay at 140 ± 9 nM and the “Wi-38 EC100” value is 0.110 ± 0.002 µM.
In the case of `COc1ccc2nc(N3CCOCC3)c(-c3cc(-c4cccc(OC(C)=O)c4)[nH]c(=O)c3C#N)cc2c1` [7c, 3-(5-Cyano-4-(6-methoxy-2-morpholin-4-yl-quinolin-3-yl)-6-oxo-1,6-dihydropyridin-2-yl)phenyl acetate], the melting point was greater than 300 °C. The compound also returned an IC50 in data set [1] of 142.1 ± 1 nM. In data set [2], the IC50 stood at 101 ± 1 nM. This compound also had an IC50 in data set [3] of 153 ± 34 nM. Moreover, in data set [4], the IC50 turned out to be 127 ± 14 nM and the “Caco-2 SI” value was 1.079. In data set [5], the EC50 amounted to 137 ± 0.1 nM and the “Wi-38 EC100” value was determined as 0.094 ± 0.005 µM.
